Structures can show the parent of a compound that is named as a salt. Where two headings read alike, the source gives them in different places.
Experiments:
[1] = tested on: SARS-CoV-2 in human airway epithelial cells at air-liquid interface; type: cell-based, SARS-CoV-2_B.1.1.7
[2] = tested on: SARS-CoV-2 in Mucilair human airway epithelia; type: cell-based, SARS-CoV-2 BavPat1/2020
[3] = tested on: SARS-CoV-2 in human airway epithelial cells at air-liquid interface; design: method as in earlier work; details: 4 dpi, cited from earlier work

Compound: Nc1c(Br)cc(Br)cc1CN[C@H]1CC[C@H](O)CC1 [Ambroxol, ambroxol]
- Log Viral Load Reduction (Compared to Virus Control and Background), HAEC/ALI (alpha variant) [1]: –1.0 (+-0.71) log

Compound: CCN(CC)Cc1cc(Nc2ccnc3cc(Cl)ccc23)ccc1O [Amodiaquine, amodiaquine]
- Log Viral titer Reduction (Compared to Virus Control), HAEC/ALI (BavPat variant) ([2]; 10 uM, […]): -0.51 (+-1.60) log

Compound: COC(=O)N[C@H](C(=O)N[C@@H](Cc1ccccc1)[C@@H](O)CN(Cc1ccc(-c2ccccn2)cc1)NC(=O)[C@@H](NC(=O)OC)C(C)(C)C)C(C)(C)C [Atazanavir, atazanavir]
- Log Viral titer Reduction (Compared to Virus Control), HAEC/ALI (BavPat variant) ([2]; 10 uM, […]): 0.09 (+-0.64) log

Compound: CN(C)C(=O)COC(=O)Cc1ccc(OC(=O)c2ccc(NC(=N)N)cc2)cc1 [Camostat mesylate, camostat mesylate]
- Activity, HAEC/ALI (alpha variant) [1]: YES
- Log Viral Load Reduction (Compared to Virus Control and Background), HAEC/ALI (alpha variant) [1]: > 1.7 log

Compound: COc1ccc2cc1Oc1ccc(cc1)C[C@H]1c3c(cc4c(c3Oc3cc5c(cc3OC)CCN(C)[C@@H]5C2)OCO4)CCN1C [Cepharanthine, cepharanthine]
- Log Viral Load Reduction (Compared to Virus Control and Background), HAEC/ALI (alpha variant) [1]: 0.92 (+-0.97) log

Compound: COc1cc2c(c(OC)c1OC)-c1ccc(OC)c(=O)cc1[C@@H](NC(C)=O)CC2 [Colchicine, colchicine]
- Log Viral Load Reduction (Compared to Virus Control and Background), HAEC/ALI (alpha variant) [1]: -0.2 (+-0.44) log

Compound: COC(=O)N[C@H](C(=O)N1CCC[C@H]1c1nc(-c2ccc(-c3ccc(-c4c[nH]c([C@@H]5CCCN5C(=O)[C@@H](NC(=O)OC)C(C)C)n4)cc3)cc2)c[nH]1)C(C)C [Daclatasvir, daclatasvir]
- Log Viral Load Reduction (Compared to Virus Control and Background), HAEC/ALI (alpha variant) ([1]; 10 uM, […]): 0.17 (+-0.84) log

Compound: O=c1nc(NO)ccn1[C@@H]1O[C@H](CO)[C@@H](O)[C@H]1O [EIDD-1931]
- Log Viral Load Reduction (Compared to Virus Control and Background), HAEC/ALI (alpha variant) [1]: +Inc
- Log Viral Load Reduction (Compared to Virus Control and Background), HAEC/ALI (alpha variant) ([1]; 10 uM, […]): +Inc

Compound: NC(=O)c1nc(F)c[nH]c1=O [Favipiravir, favipiravir]
- Log Viral Load Reduction (Compared to Virus Control and Background), HAEC/ALI (alpha variant) ([1]; 300 uM, […]): -0.4 (+/-0.2) log

Compound: CNCCC(Oc1ccc(C(F)(F)F)cc1)c1ccccc1 (stereo not shown) [Fluoxetine, fluoxetine]
- Log Viral Load Reduction (Compared to Virus Control and Background), HAEC/ALI (alpha variant) [1]: -0.12 (+-0.10)
- Log Viral titer Reduction (Compared to Virus Control), HAEC/ALI (BavPat variant) [2]: 0.68 (+-0.11)

Compound: COCCCC/C(=N\OCCN)c1ccc(C(F)(F)F)cc1 [Fluvoxamine maleate, fluvoxamine maleate]
- Log Viral Load Reduction (Compared to Virus Control and Background), HAEC/ALI (alpha variant) ([1]; 10 uM, […]): +Inc
- Log Viral titer Reduction (Compared to Virus Control), HAEC/ALI (BavPat variant) ([2]; 10 uM, […]): 0.2(+-0.1) log

Compound: OC(c1cc(C(F)(F)F)nc2c(C(F)(F)F)cccc12)C1CCCCN1 (stereo not shown) [Mefloquine, mefloquine]
- Log Viral Load Reduction (Compared to Virus Control and Background), HAEC/ALI (alpha variant) ([1]; 10 uM, […]): 0.45 (+-2.02) log

Compound: CC(C)C(=O)OC[C@H]1O[C@@H](n2ccc(NO)nc2=O)[C@H](O)[C@@H]1O [Molnupiravir, molnupiravir]
- Log Viral Load Reduction (Compared to Virus Control and Background), HAEC/ALI (alpha variant) [1]: 1.9 (+-1.3) log
- Activity, HAEC/ALI (alpha variant) ([1]; 3 uM, […], § variability observed): YES
- Activity, HAEC/ALI (alpha variant) ([1]; 10 uM, […]): YES
- Log Viral Load Reduction (Compared to Virus Control and Background), HAEC/ALI (alpha variant) ([1]; 10 uM, […]): 5.4 (+-1.5) log
- Activity, HAEC/ALI (BavPat variant) [2]: YES
- Log Viral titer Reduction (Compared to Virus Control), HAEC/ALI (BavPat variant) ([2]; 0.3 uM, […]): -0.39 (+-0.48) log

Compound: Cc1c(O)cccc1C(=O)N[C@@H](CSc1ccccc1)[C@H](O)CN1C[C@H]2CCCC[C@H]2C[C@H]1C(=O)NC(C)(C)C [Nelfinavir, nelfinavir]
- Activity, HAEC/ALI (alpha variant) ([1]; 10 uM, […]): YES
- Log Viral Load Reduction (Compared to Virus Control and Background), HAEC/ALI (alpha variant) ([1]; 10 uM, […]): 3.2 (+-1.4) log

Compound: CC(C)(C)[C@H](NC(=O)C(F)(F)F)C(=O)N1C[C@H]2[C@@H]([C@H]1C(=O)N[C@H](C#N)C[C@@H]1CCNC1=O)C2(C)C [Nirmatrelvir, nirmatrelvir]
- Log Viral Load Reduction (Compared to Virus Control and Background), HAEC/ALI (alpha variant) ([3]; 0.03 uM): -0.30 (+-0.41) log
- Log Viral Load Reduction (Compared to Virus Control and Background), HAEC/ALI (alpha variant) ([3]; 0.1 uM): 1.9 (+-1.6) log
- Activity, HAEC/ALI (alpha variant) ([3]; 0.1 uM, § variability observed): YES
- Activity, HAEC/ALI (alpha variant) ([3]; 1 uM): YES
- Log Viral Load Reduction (Compared to Virus Control and Background), HAEC/ALI (alpha variant) ([3]; 1 uM): > 3.8 log

Compound: CC(=O)Oc1ccccc1C(=O)Nc1ncc([N+](=O)[O-])s1 [Nitazoxanide, nitazoxanide]
- Activity, HAEC/ALI (BavPat variant) [2]: Yes
- Log Viral titer Reduction (Compared to Virus Control), HAEC/ALI (BavPat variant) [2]: -1.59 (+-0.72) log

Compound: CC(=O)CCCCn1c(=O)c2c(ncn2C)n(C)c1=O [Pentoxyfilline, pentoxyfilline]
- Log Viral titer Reduction (Compared to Virus Control), HAEC/ALI (BavPat variant) ([2]; 10 uM, […]): 0.17(+-0.32) log

Compound: CCCN(CCC)S(=O)(=O)c1ccc(C(=O)O)cc1 [Probenecid, probenecid]
- Log Viral Load Reduction (Compared to Virus Control and Background), HAEC/ALI (alpha variant) ([1]; 10 uM, […]): 0.34 (+-1.0) log

Compound: CC1(C)C(=O)N(c2ccc(C#N)c(C(F)(F)F)c2F)C(=S)N1c1ccc(CCCc2ncco2)nc1 [Proxalutamide, proxalutamide]
- Log Viral titer Reduction (Compared to Virus Control), HAEC/ALI (BavPat variant) ([2]; 10 uM, […]): 0.11 (+-0.6) log

Compound: CC(C)OC(=O)[C@H](C)N[P@](=O)(OC[C@H]1O[C@@H](n2ccc(=O)[nH]c2=O)[C@](C)(F)[C@@H]1O)Oc1ccccc1 [Sofosbuvir, sofosbuvir]
- Log Viral Load Reduction (Compared to Virus Control and Background), HAEC/ALI (alpha variant) ([1]; 10 uM, […]): -0.56 (+-0.10) log

Compound: bemnifosbuvir
- Log Viral Load Reduction (Compared to Virus Control and Background), HAEC/ALI (alpha variant) [1]: -0.35 (+-1.2) log
- Log Viral titer Reduction (Compared to Virus Control), HAEC/ALI (BavPat variant) ([2]; 0.1 uM, […]): -0.12 (+-0.4) log
- Log Viral titer Reduction (Compared to Virus Control), HAEC/ALI (BavPat variant) ([2]; 0.3 uM, […]): -0.38 (+-0.18) log

Compound: ivermectin
- Activity, HAEC/ALI (alpha variant) ([1]; 10 uM, […]): Toxic
- Log Viral Load Reduction (Compared to Virus Control and Background), HAEC/ALI (alpha variant) ([1]; 10 uM, […]): > 4.09 log
